Structures are written as SMILES.

T1 sequence (Q13574 whole entry): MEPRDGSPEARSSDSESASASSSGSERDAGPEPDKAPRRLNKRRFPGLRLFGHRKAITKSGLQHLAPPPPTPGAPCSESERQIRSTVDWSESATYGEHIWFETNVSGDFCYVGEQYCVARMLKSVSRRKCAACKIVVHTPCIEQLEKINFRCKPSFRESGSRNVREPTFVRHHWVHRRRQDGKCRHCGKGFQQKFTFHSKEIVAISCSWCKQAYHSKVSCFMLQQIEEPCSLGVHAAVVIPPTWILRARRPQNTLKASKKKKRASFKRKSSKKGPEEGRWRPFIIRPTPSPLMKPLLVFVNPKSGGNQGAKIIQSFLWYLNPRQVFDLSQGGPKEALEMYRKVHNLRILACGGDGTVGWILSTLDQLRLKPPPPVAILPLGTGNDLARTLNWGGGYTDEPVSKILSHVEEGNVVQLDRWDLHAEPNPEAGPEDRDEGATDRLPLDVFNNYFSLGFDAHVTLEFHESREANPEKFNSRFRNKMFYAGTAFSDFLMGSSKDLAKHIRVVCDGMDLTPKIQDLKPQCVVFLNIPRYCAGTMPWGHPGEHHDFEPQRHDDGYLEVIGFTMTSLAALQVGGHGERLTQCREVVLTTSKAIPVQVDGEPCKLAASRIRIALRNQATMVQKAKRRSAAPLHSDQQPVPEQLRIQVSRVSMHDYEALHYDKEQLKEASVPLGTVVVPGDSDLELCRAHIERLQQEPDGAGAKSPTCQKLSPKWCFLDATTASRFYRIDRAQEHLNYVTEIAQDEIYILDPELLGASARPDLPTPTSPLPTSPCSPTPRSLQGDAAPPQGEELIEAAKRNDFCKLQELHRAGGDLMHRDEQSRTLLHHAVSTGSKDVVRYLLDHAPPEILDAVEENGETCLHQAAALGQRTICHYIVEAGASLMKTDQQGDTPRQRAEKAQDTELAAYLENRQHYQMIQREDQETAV

The assay has as its target T1, DGK ζ kinase (Homo sapiens, UniProt Q13574).
T1 construct: purchased Reaction Biology Corp. (contract assay service)
The assay can be described thus: DGKzeta kinase ADP Glo assay run by Reaction Biology Corp. It counts as biochemical. Conditions: 2 nM kinase, 50 µM ATP, 500 μM DLG, 10-dose duplicate. As for the experimental part:
DGK α and ζ kinases use ATP to phosphorylate the substrate 1,2-dilauroyl-sn-glycerol (DLG). ATP is converted to ADP as a result of this enzymatic reaction.
After the kinase reaction, an ATP-depletion reagent is added to terminate the kinase reaction and deplete any remaining ATP, leaving only ADP. Second, a detection reagent is added to simultaneously convert ADP to ATP and allow the newly synthesized ATP to be converted to light using a coupled luciferase/luciferin reaction.
DGK α and ζ kinase ADP Glo assays were ran by Reaction Biology Corp., 1 Great Valley Parkway, Suite 2, Malvern, 19355, PA, USA. Information provided by the service provider are the following: DGK α and ζ kinases were used at 2 nM final concentration. Reactions were carried out at 50 µM ATP. 500 μM of the substrate DLG (Dilauroyl-sn-glycerol) was used.
What is called IC50 is the midpoint of a concentration-inhibition curve. The low end stands for higher potency, the high end for lower potency. `N[C@H]1CS(=O)(=O)c2ccc(-c3nnc(C4(C5CC5)CCCO4)o3)cc2N(Cc2ccc(-c3noc(C(F)(F)F)n3)cc2)C1=O` (stereo partly drawn) [Example 36, (3R)-3-amino-7-[5-(2-cyclopropyl-tetrahydrofuran-2-yl)-1,3,4-oxadiazol-2-yl]-1,1-dioxo-5-[[4-[5-(trifluoromethyl)-1,2,4-oxadiazol-3-yl]phenyl]methyl]-2,3-dihydro-1λ^6,5-benzothiazepin-4-one] yielded an IC50 of 50.7 nM.

`N[C@H]1CS(=O)(=O)c2ccc(-c3nnc(C4(N)CCCCC4)o3)cc2N(Cc2ccc(-c3noc(C(F)(F)F)n3)cc2)C1=O` [Example 39, (3R)-3-amino-7-[5-(1-aminocyclohexyl)-1,3,4-oxadiazol-2-yl]-1,1-dioxo-5-[[4-[5-(trifluoromethyl)-1,2,4-oxadiazol-3-yl]phenyl]methyl]-2,3-dihydro-1λ^6,5-benzothiazepin-4-one] came in with an IC50 of 56.4 nM. For `CC(C)(C#N)c1nnc(-c2cc3c(cc2F)S(=O)(=O)C[C@H](N)C(=O)N3Cc2ccc(-c3ccc(C(F)(F)F)cn3)cc2)o1` [Example 88, 2-[5-[(3R)-3-amino-8-fluoro-1,1,4-trioxo-5-[[4-[5-(trifluoromethyl)-2-pyridyl]phenyl]methyl]-2,3-dihydro-1λ^6,5-benzothiazepin-7-yl]-1,3,4-oxadiazol-2-yl]-2-methyl-propanenitrile], it took 4.1 nM to reach half-maximal inhibition (IC50). The compound `CC(N)(c1nnc(-c2ccc3c(c2)N(Cc2ccc(-c4noc(C(F)(F)F)n4)cc2)C(=O)[C@@H](N)CS3(=O)=O)o1)C(F)(F)F` (stereo partly drawn) [Example 32, (3R)-3-amino-7-[5-(1-amino-2,2,2-trifluoro-1-methyl-ethyl)-1,3,4-oxadiazol-2-yl]-1,1-dioxo-5-[[4-[5-(trifluoromethyl)-1,2,4-oxadiazol-3-yl]phenyl]methyl]-2,3-dihydro-1λ^6,5-benzothiazepin-4-one] registered an IC50 of 128 nM.

For `CC(O)(c1nnc(-c2ccc3c(c2)N(Cc2ccc(-c4noc(C(F)(F)F)n4)cc2)C(=O)[C@@H](N)CS3(=O)=O)o1)C(F)(F)F` (stereo partly drawn) [Example 96, (3R)-3-amino-1,1-dioxo-7-[5-(2,2,2-trifluoro-1-hydroxy-1-methyl-ethyl)-1,3,4-oxadiazol-2-yl]-5-[[4-[5-(trifluoromethyl)-1,2,4-oxadiazol-3-yl]phenyl]methyl]-2,3-dihydro-1λ^6,5-benzothiazepin-4-one], half-maximal inhibition (IC50) was put at 107 nM. As for `CC(C)(C)c1nnc(-c2ccc3c(c2)N(Cc2ccc(-c4nnc(C(F)(F)F)o4)cc2)C(=O)[C@@H](N)CS3(=O)=O)o1` [Example 24, (3R)-3-amino-7-(5-tert-butyl-1,3,4-oxadiazol-2-yl)-1,1-dioxo-5-[[4-[5-(trifluoromethyl)-1,3,4-oxadiazol-2-yl]phenyl]methyl]-2,3-dihydro-1λ^6,5-benzothiazepin-4-one], the figure is 510 nM.
